Assay results taken from patent publication US4464300A, “Triazolo benzazepines” (Hoffmann-La Roche Inc., priority 1981, dated 1984).

What was measured:
[1] = test system: squirrel monkeys; experiment: Conflict Test in Monkeys; assay type: in vivo, male squirrel monkeys; settings: for minimal effective dose: Saimiri, in Primates, po, read-out: Conflict test in monkeys, MED (smallest significant effective dosage); for Conflict test in monkeys, HED (highest significant effective dosage): p.o.
Protocol: A two-key Skinner box with a feed pellet dispenser is used as the test apparatus. 13 fasted, male squirrel monkeys weighing 0.8 to 1 kg are used as the test animals. Upon pressing one of the keys the test animals receive a feed pellet on average every 6 minutes. Upon pressing the other key the test animals receive a feed pellet four times more frequently (i.e. on average every 1.5 minutes), but they are simultaneously punished with an electric foot-shock. The foot-shock causes a reduction in the pressing of the key which gives more frequent feed pellets. […] The smallest (MED) and the highest significant effective dosage (HED) are thereby determined.

[2] = test system: spontaneous movements of rats; experiment: Determination of the Motor Activity; assay type: in vivo; settings: Rattus norvegicus, po, 2 hours, dosage which reduces mobility to 40% of untreated animals
Protocol: Groups each comprising three rats (200 g) are confined in large cages. The test animals can adapt themselves to the new surroundings for 30 minutes; subsequently the test substance is administered to them orally. The spontaneous movements are registered automatically for 2 hours by means of infrared light barriers. The ED40 is that dosage which reduces to 40% the mobility of the test animals in comparison to the untreated animals.

[3] = Anti-pentetrazole Test; assay type: in vivo, female mice; settings: Mus musculus, po, 0.5 h; p.o., mice, 30 minutes before i.v. pentetrazole; dosage giving convulsive threshold ratio treated:untreated of 2:1; read-out: Anti-pentetrazole test, PR 2.0
Protocol: The compound to be tested is administered orally to groups of 6 female mice (19-21 g) and 30 minutes later there is administered intravenously (0.375 ml/minute) a 0.5 percent solution of pentetrazole in sodium chloride solution. The time from the beginning of the infusion until tonic stretchings of the hind limbs appear is measured and therefrom there is calculated the dosage of penetetrazole administered up to this point in time, which is denoted as the convulsive threshold dosage. The PR2.0 is that dosage of the test substance which is required in order that the ratio of the convulsive threshold dosage in treated animals to the convulsive threshold dosage in untreated animals amounts to 2:1.

[4] = Anti-3-mercaptopropionic Acid Test; assay type: in vivo, female mice; settings: Mus musculus, po, 0.5 h; p.o., mice, 30 minutes before 48.8 mg/kg i.p. 3-mercaptopropionic acid; Probit method
Protocol: The compound to be tested is administered orally to female mice (19-21 g) and 30 minutes later there are administered i.p. 48.8 mg/kg of 3-mercaptopropionic acid, a dosage which in untreated animals causes after 4 minutes emprosthotonus and tonic stretching of the hind limbs. 12 mice are used per dosage. At least 6 to 8 different dosages are tested. The number of protected test animals per dosage group is determined and the ED50 is determined therefrom by means of the Probit method.

[5] = test system: rats; experiment: Conflict Test in Rats; assay type: in vivo; settings: Rattus norvegicus, po, 30 minutes before 1-hour conflict test; Wilcoxon test; read-out: Conflict test in rats, FSD (first significant anxiolytically-effective dosage)
Protocol: The test apparatus is a one-key Skinner box with a feed pellet dispenser. For the testing of potential anxiolytics there are generally used 8 fasted rats per substance and dosage. In this case, there are used rats only which respond to the known anxiolytic chlordiazepoxide.
The test substances, which are dissolved or suspended in a mixture of 10 ml of distilled water and 2 drops of Tween 80, are administered to the test animals with the aid of a probang 30 minutes before the 1-hour conflict test. During the experiment, in which each key press for a feed pellet is combined with a foot-shock (conflict), the number of key operations is registered. In this case, each test animal serves as its own control, in that it is pre-treated once with test substance and once with sodium chloride solution.
The first significant anxiolytically-effective dosage (FSD) is determined with the Wilcoxon test (comparison of pairs) by comparing the number of key operations in the main test (feed pellet+foot-shock, after pre-treatment with test substance) directly with the number of key operations in the control test (feed pellet+foot-shock, after pre-treatment with sodium chloride solution).

[6] = acute toxicity, single oral administration to mice; settings: mouse, in vivo, p.o.
Text: Some representative members of the class of compound defined by formula I have been investigated in the tests described below, and it has been shown that in rats and monkeys they display pronounced anxiolytic properties. Moreover, the Table contains data concerning the acute toxicity of these compounds (LD50 in the case of single oral administration to mice).

Structure (SMILES)	minimal effective dose [1]	Conflict test in monkeys, HED (highest significant effective dosage) [1]	ED40 [2]	ED (2-fold convulsive threshold) [3]	ED50 [4]	minimal effective dose [5]	LD50 [6]
NCc1nnc2n1-c1ccc(Cl)cc1C(c1ccccc1F)=CC2 [Compound B, 1-(aminomethyl)-8-chloro-6-(2-fluorophenyl)-4H-s-triazolo[4,3-a][1]benzazepine]	1.25 mg/kg	10 mg/kg	> 100 mg/kg	5.8 mg/kg	3.7 mg/kg	100 mg/kg	1000 to 2000 mg/kg
Cc1nnc2n1-c1ccc(Cl)cc1C(c1ccccc1F)=CC2 [Compound C, 8-chloro-6-(2-fluorophenyl)-1-methyl-4H-s-triazolo[4,3-a][1]benzazepine]	10 mg/kg	> 80 mg/kg	77 mg/kg	4 mg/kg	1.9 mg/kg	3 mg/kg	> 5000 mg/kg
O=c1[nH]nc2n1-c1ccc(Cl)cc1C(c1ccccc1F)=CC2 [Compound A, 8-chloro-6-(2-fluorophenyl)-2,4-dihydro-1H-s-triazolo[4,3-a][1]benzazepin-1-one]	1.25 mg/kg	> 80 mg/kg	> 300 mg/kg	4.1 mg/kg	6 mg/kg	3 mg/kg	> 5000 mg/kg
